Experimental data from patent publication US20130344174A1, “Bioactive Fractions and Compounds from Polygonum genus, their Use in Anti-diarrhea and the Method of Preparation” (HONG KONG BAPTIST UNIVERSITY, priority 2012, published 2013).

What was measured:
Type in all cases: in vivo, ICR mice
[1] = test system: intestinal fluid secretion evoked by MgSO4 in mice; experiment: Antienteropooling assay (MgSO4-evoked intestinal fluid accumulation); settings: 5 days, compared to control group, FIG. 7
Experimental: ICR mice weighing 18-22 g were purchased from the Laboratory Animal Services Center, The Chinese University of Hong Kong. The animals were fed with a rodent standard diet with free access to water, and were kept in rooms maintained at 22±1° C. with a 12 h light/dark cycle following international recommendations. All experimental protocols were approved by The Animal Ethics Committees of Hong Kong Baptist University, in accordance with “Institutional Guidelines and Animal Ordinance” (Department of Health, Hong Kong Special Administrative Region). The experiment was conducted as previously described with a litter revision. Animals will be randomly divided into six groups. Vehicle control group received 0.5% CMC suspension (10 ml/kg, p.o.), the positive control group was administered loperamide at the dose of 2 mg/kg orally; the test groups were orally administered major principles ellagic acid at the doses of 15 and 30 mg/kg, and corilagin at the doses of 30 and 60 mg/kg, respectively. The whole treatment lasted for 5 consecutive days. Before the last treatment, the mice of all groups were fasted overnight. After one hour of the last treatment on day 5, all groups were given the diarrhea reagent (0.5 ml/mouse of a 20% aq. MgSO4, orally). They were killed 30 min later and the small intestines were collected and weighed to find out the accumulation of intestinal fluid secretion evoked by MgSO4.

[2] = test system: castor oil-induced diarrhea in mice; experiment: Castor oil-induced diarrhea in mice; settings: castor oil model, FIG. 6; for inhibitory effect on diarrhea (stools rate, stools grade, diarrhea index): oral, corilagin 30 and 60 mg/kg, ellagic acid 15 and 30 mg/kg
Experimental: ICR mice weighing 18-22 g were purchased from the Laboratory Animal Services Center, The Chinese University of Hong Kong. The animals were fed with a rodent standard diet with free access to water, and were kept in rooms maintained at 22±1° C. with a 12 h light/dark cycle following international recommendations. All experimental protocols were approved by The Animal Ethics Committees of Hong Kong Baptist University, in accordance with “Institutional Guidelines and Animal Ordinance” (Department of Health, Hong Kong Special Administrative Region). The castor oil-induced diarrhea model, as previously described by Zhou, et al in Zhou [NT]; Hu Zhihua; Wang […]; et al (Institute of Chinese Materia Medica, China Pharmaceutical University, Nanjing); An Inquiry into Preparing Diarrhea Model of Mice and Application of Diarrhea Index[J]; Chinese Traditional and Herbal Drugs; 1994-04, was used in the present study. In brief, extracts, fractions or major components of P. chinense, and loperamide were administered orally for 5 consecutive days. On day 5, each animal was kept individually in a cage, the floor of which was lined with blotting paper, and the paper was changed every hour. 30 min after the last treatment, diarrhea was induced by oral administration of castor oil ([…]). Number of total fecal pellets and wet faeces were counted in 4 h after the administration of castor oil. The diameter of wet faeces was measured and scored in order to evaluate stool consistency as follows: 1-the diameter of wet […] than 1.0 cm; 2-the diameter of wet […] between 1.0 and 2.0 cm; 3-the diameter of wet […] between 2.0 and 3.0 cm; 4- the diameter of wet […] more than 3.0 cm. The stool rate (SR) was calculated through comparing of the number of wet faeces and total faeces, and stool grade (SG) was evaluated according to the formula: [formula] where Nwet is the number of wet faeces; N<1, N1-2, N2-3 and N>3 are the number of wet faeces whose diameter are less than 1.0 cm, between 1.0 and 2.0 cm, between 2.0 and 3.0 cm, and more than 3.0 cm, respectively. Finally, the stool severity was evaluated by the in vivo diarrheal index (DI) and expressed as follows according to the method of Zhou, et al. DI=SR×SG

[3] = test system: intestinal transit of charcoal meal in mice; experiment: Gastrointestinal transit test (charcoal meal); settings: 5 days, FIG. 7
Experimental: ICR mice weighing 18-22 g were purchased from the Laboratory Animal Services Center, The Chinese University of Hong Kong. The animals were fed with a rodent standard diet with free access to water, and were kept in rooms maintained at 22±1° C. with a 12 h light/dark cycle following international recommendations. All experimental protocols were approved by The Animal Ethics Committees of Hong Kong Baptist University, in accordance with “Institutional Guidelines and Animal Ordinance” (Department of Health, Hong Kong Special Administrative Region). The experiment was conducted based on methods known in the art with a litter revision. Animals will be randomly divided into six groups. Vehicle control group received 0.5% CMC suspension (10 ml/kg, p.o.), the positive control group was administered loperamide at the dose of 2 mg/kg orally; the test groups were orally administered major principles ellagic acid at the doses of 15 and 30 mg/kg, and corilagin at the doses of 30 and 60 mg/kg, respectively. The whole treatment lasted for 5 consecutive days. Before the last treatment, the mice of all groups were fasted overnight. Five minutes later of the last treatment on day 5, 0.5 ml of a 3% suspension of deactivated charcoal in 0.5% aqueous Sodium Carboxymethyl Cellulose was administered orally to each mouse. All the mice were killed by cervical […] 30 min later and the distance travelled by the charcoal plug from pylorus to caecum was determined and expressed as a percentage of the total length of the small intestine.

[4] = test system: magnesium sulphate-induced diarrhea in mice; experiment: Magnesium sulphate-induced diarrhea in mice; settings: magnesium sulfate model, FIG. 6; for inhibitory effect on diarrhea (stools rate, stools grade, diarrhea index): oral, corilagin 30 and 60 mg/kg, ellagic acid 15 and 30 mg/kg
Experimental: ICR mice weighing 18-22 g were purchased from the Laboratory Animal Services Center, The Chinese University of Hong Kong. The animals were fed with a rodent standard diet with free access to water, and were kept in rooms maintained at 22±1° C. with a 12 h light/dark cycle following international recommendations. All experimental protocols were approved by The Animal Ethics Committees of Hong Kong Baptist University, in accordance with “Institutional Guidelines and Animal Ordinance” (Department of Health, Hong Kong Special Administrative Region). A protocol for castor oil-induced diarrhea was followed. In brief, diarrhea was induced by orally administration of magnesium sulphate at the dose of 3 g/kg to the animals 30 min after pretreatment with extracts, fractions or major components of P. chinense, and loperamide. All the administrations are carried out through oral route. Stool rate (SR), stool grade (SG) and diarrheal index (DI) were all evaluated.

[5] = 60 mg/kg oral vs loperamide 2 mg/kg
[6] = 30 mg/kg oral vs loperamide 2 mg/kg

SMILES | intestinal fluid volume (pylorus to caecum) ([1]; 30 mg/kg oral) | intestinal fluid volume (pylorus to caecum) ([1]; 60 mg/kg oral) | anti-diarrheal activity compared to loperamide [2, 5] | inhibitory effect on diarrhea (stools rate, stools grade, diarrhea index) [2] | intestinal transit of charcoal meal ([3]; 15 mg/kg oral) | intestinal transit of charcoal meal ([3]; 30 mg/kg oral) | anti-diarrheal activity compared to loperamide [4, 5] | inhibitory effect on diarrhea (stools rate, stools grade, diarrhea index) [4] | intestinal fluid volume (pylorus to caecum) ([1]; 15 mg/kg oral) | anti-diarrheal activity compared to loperamide [2, 6] | anti-diarrheal activity compared to loperamide [4, 6]
O=C(O[C@@H]1O[C@@H]2COC(=O)c3cc(O)c(O)c(O)c3-c3c(cc(O)c(O)c3O)C(=O)O[C@H]([C@H]1O)[C@@H]2O)c1cc(O)c(O)c(O)c1 [corilagin] | significantly reduced | significantly reduced | comparable anti-diarrheal activities as loperamide | significantly inhibitory effects | significantly delay | significantly delay | comparable anti-diarrheal activities as loperamide | significantly inhibitory effects | – | – | –
O=c1oc2c(O)c(O)cc3c(=O)oc4c(O)c(O)cc1c4c23 [ellagic acid] | significantly reduced | – | – | significantly inhibitory effects | – | significantly delay | – | significantly inhibitory effects | significantly reduced | comparable anti-diarrheal activities as loperamide | comparable anti-diarrheal activities as loperamide
